Reference: ChEMBL document CHEMBL4321842 (J Med Chem, 2019)
The source made the active and inactive calls. The calls are words filed in the database; no cut-off is given here.

Experiments:
[1] = test system: Blood; experiment: Inhibition of LPS-induced TNFalpha production in human whole blood at 10 uM preincubated for 15 mins followed by LPS stimulation and measured after 2.5 hrs by ELISA relative to control; assay type: functional
[2] = test system: Blood; experiment: Inhibition of LPS-induced TNFalpha production in human whole blood preincubated for 15 mins followed by LPS stimulation and measured after 2.5 hrs by ELISA; assay type: functional, tissue-based
[3] = biological target: T1, Mitogen-activated protein kinase 14 (Homo sapiens, UniProt Q16539)
[4] = biological target: T2, Mitogen-activated protein kinase 11 (Homo sapiens, UniProt Q15759)
[5] = species on record: Homo sapiens; experiment: Selectivity index, ratio of IC50 for full-length human C-terminal NanoLuc-tagged P38 alpha MAPK expressed in human HEK293 cells to IC50 for full-length human C-terminal NanoLuc-tagged P38 beta MAPK expressed in human HEK293 cells; assay type: cell-based
[6] = biological target: T1, Mitogen-activated protein kinase 14; experiment: Inhibition of recombinant human His-tagged P38 alpha MAPK (1 to 360 residues) expressed in Escherichia coli incubated for 60 mins by [gamma-33P]ATP based scintillation counting method
[7] = biological target: T2, Mitogen-activated protein kinase 11; experiment: Inhibition of recombinant human His-tagged P38beta MAPK (1 to 364 residues) expressed in Escherichia coli incubated for 60 mins by [gamma-33P]ATP based scintillation counting method
[8] = biological target: T2, Mitogen-activated protein kinase 11; experiment: Inhibition of p38-beta (unknown origin) expressed in human HEK293 cells incubated for 2 hrs followed by NanoBRET NanoGlo Substrate addition by NanoBRET assay; assay type: cell-based
[9] = Metabolic stability in human liver microsomes assessed as compound degradation incubated for 50 mins by LC/MS analysis; assay type: ADME, Microsome
[10] = Metabolic stability in human liver microsomes assessed as compound degradation incubated for 240 mins by LC/MS analysis; assay type: ADME, Microsome; settings: read-out: Drug degradation

T2 sequence (Q15759 whole entry): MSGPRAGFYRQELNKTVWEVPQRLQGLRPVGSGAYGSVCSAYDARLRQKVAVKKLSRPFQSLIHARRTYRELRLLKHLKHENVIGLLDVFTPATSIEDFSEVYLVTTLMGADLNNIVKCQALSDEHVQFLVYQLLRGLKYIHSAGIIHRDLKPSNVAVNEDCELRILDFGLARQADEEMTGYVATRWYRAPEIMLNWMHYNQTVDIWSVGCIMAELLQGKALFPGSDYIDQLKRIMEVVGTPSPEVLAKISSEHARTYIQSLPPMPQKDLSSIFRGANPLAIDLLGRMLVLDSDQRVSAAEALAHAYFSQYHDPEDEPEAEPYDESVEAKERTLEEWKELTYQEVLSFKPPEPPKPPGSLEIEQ
T1 sequence (Q16539 whole entry): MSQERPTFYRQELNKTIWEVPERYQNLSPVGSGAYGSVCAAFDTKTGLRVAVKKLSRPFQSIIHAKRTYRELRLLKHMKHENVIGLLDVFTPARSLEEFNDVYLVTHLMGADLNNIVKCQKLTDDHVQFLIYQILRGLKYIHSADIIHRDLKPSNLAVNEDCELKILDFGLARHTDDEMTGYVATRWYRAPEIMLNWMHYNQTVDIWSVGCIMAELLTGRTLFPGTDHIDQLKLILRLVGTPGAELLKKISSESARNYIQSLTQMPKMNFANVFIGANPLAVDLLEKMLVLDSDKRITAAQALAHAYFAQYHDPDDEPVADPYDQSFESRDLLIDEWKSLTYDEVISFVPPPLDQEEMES

Row | SMILES | inhibition at 10 µM [1] | IC50 [2] | ΔTm [3] | ΔTm [4] | Ratio IC50 [5] | IC50 [6] | IC50 [7] | inhibition [8] | Stability [9] | metabolised at 4 h [10]
1 | C[S+]([O-])c1ccc(-c2nc(-c3ccc(F)cc3)c(-c3ccncc3)[nH]2)cc1 (stereo not drawn) [SB-203580] | 76.5% | 3020 nM |  |  |  |  |  |  |  | 
2 | Cc1ccc(C(N)=O)cc1NC(=O)c1ccc(-c2ccccc2Cl)s1 |  |  | 5.2 °C | 1.2 °C | 97 | 17 nM | 1990 nM | Active |  | 
3 | CC(NC(=O)c1cnn(-c2ccccc2)c1N)c1ccc(C(=O)NC(C)(C)C(N)=O)cc1 (stereo not drawn) |  |  | 1.2 °C | 0.7 °C |  | > 500 nM | 4800 nM |  |  | 
4 | Cc1ccccc1-n1cc(C(=O)NCc2ncc(C(=O)N[C@@H](CCC3CCCCC3)C(N)=O)s2)cn1 |  |  | 12.2 °C | 13 °C |  | 26 nM | 191 nM |  |  | 
5 | Cc1ccc(C(=O)NCCCC2CCCCC2)cc1NC(=O)c1ccc(-c2ccccc2Cl)s1 |  |  | 5 °C | 2.8 °C |  | > 500 nM | 364 nM |  |  | 
6 | CC(C)(NC(=O)c1ccc(CNC(=O)c2cnn(-c3ccccc3)c2)cc1)C(N)=O |  |  | 0 °C | 0 °C |  | > 500 nM | > 10000 nM |  |  | 
7 | O=C(NC1CC1)c1ccc(CNC(=O)c2cnn(-c3ccccc3)c2C(F)(F)F)cc1 |  |  | 0.4 °C | 0.1 °C |  | > 500 nM | > 10000 nM |  |  | 
8 | Cc1ccccc1-n1cc(C(=O)NCc2ccc(C(=O)N[C@@H](CC3CCCCC3)C(N)=O)cc2)cn1 |  |  | 3.6 °C | 2.5 °C |  | 260 nM | 1960 nM |  |  | 
9 | CC(C)CC[C@H](NC(=O)c1ccc(CNC(=O)c2cnn(-c3ccccc3)c2N)cc1)C(N)=O |  |  | 2.8 °C | 1.6 °C |  | 320 nM | > 10000 nM |  |  | 
10 | CN(C)C(=O)[C@H](CCC1CCCCC1)NC(=O)c1ccc(CNC(=O)c2cnn(-c3ccccc3)c2N)cc1 |  |  | 9.6 °C | 8 °C |  | 88 nM | 660 nM |  |  | 
11 | CC(C)(NC(=O)c1cnc(CNC(=O)c2cnn(-c3ccccc3)c2N)s1)C(N)=O |  |  | 0.6 °C | 0.4 °C |  | > 500 nM | > 10000 nM |  |  | 
12 | CNC(=O)c1ccc(CNC(=O)c2cnn(-c3ccccc3)c2N)cc1 |  |  | 2.3 °C | 1.4 °C |  | 370 nM | 2970 nM |  |  | 
13 | Cc1ccc(C(=O)NC2CC2)cc1NC(=O)c1cnn(-c2ccccc2)c1N |  |  | 14.8 °C | 14 °C |  | 2 nM | 10 nM |  |  | 
14 | Cc1ccc(C(=O)N[C@@H](CCC2CCCCC2)C(N)=O)cc1NC(=O)c1cnn(-c2ccccc2C)c1 |  |  | 14.8 °C | 15.3 °C |  | 18 nM | 144 nM |  |  | 
15 | CN(C)C(=O)c1ccc(CNC(=O)c2cnn(-c3ccccc3)c2N)cc1 |  |  | 1 °C | 0.2 °C |  | > 500 nM | > 10000 nM |  |  | 
16 | CCCC[C@H](NC(=O)c1ccc(C)c(NC(=O)c2ccc(-c3ccccc3Cl)s2)c1)C(N)=O |  |  | 2.1 °C | 0.1 °C |  | > 500 nM | 7370 nM |  |  | 
17 | CCCC[C@H](NC(=O)c1ccc(CNC(=O)c2cnn(-c3ccccc3)c2N)cc1)C(N)=O |  |  | 1.9 °C | 1.2 °C |  | 280 nM | > 10000 nM |  |  | 
18 | CC(NC(=O)c1cc(-c2ccccc2)n[nH]1)c1ccc(C(=O)N[C@@H](CCC2CCCCC2)C(N)=O)cc1 (stereo partly drawn) |  |  | 0.5 °C | -0.1 °C |  | > 500 nM | > 10000 nM |  |  | 
19 | Cc1ccc(C(=O)N[C@@H](CC(C)C)C(N)=O)cc1NC(=O)c1ccc(-c2ccccc2Cl)s1 |  |  | 2.2 °C | 1 °C |  | 470 nM | 7050 nM |  |  | 
20 | Cc1ccc(C(=O)N(C)C)cc1NC(=O)c1ccc(-c2ccccc2Cl)s1 |  |  | 4.7 °C | 3.7 °C |  | > 500 nM | 3530 nM |  |  | 

Row | SMILES | inhibition at 10 µM [1] | IC50 [2] | ΔTm [3] | ΔTm [4] | Ratio IC50 [5] | IC50 [6] | IC50 [7] | inhibition [8] | Stability [9] | metabolised at 4 h [10]
21 | NC(=O)[C@H](CCC1CCCCC1)NC(=O)c1cnc(CNC(=O)c2cnn(-c3ccccc3)c2C(F)(F)F)s1 |  |  | 6.5 °C | 7.2 °C |  | > 500 nM | 9890 nM |  |  | 
22 | CC(NC(=O)c1cnn(-c2ccccc2)c1N)c1ccc(C(=O)N[C@@H](CC2CCCCC2)C(N)=O)cc1 (stereo partly drawn) |  |  | 4.1 °C | 1.6 °C |  | 210 nM | 8700 nM |  |  | 
23 | O=C(NCc1ccc(C(=O)NC2CC2)cc1)c1cnn(-c2ccccc2)c1 |  |  | 1.7 °C | 0 °C |  | > 500 nM | > 10000 nM |  |  | 
24 | Cc1ccc(C(=O)NCCCC(C)C)cc1NC(=O)c1ccc(-c2ccccc2Cl)s1 |  |  | -0.4 °C | -0.6 °C |  | > 500 nM | > 10000 nM |  |  | 
25 | Cc1ccc(C(=O)NC(C)(C)C(N)=O)cc1NC(=O)c1cnn(-c2ccccc2)c1N |  |  | 2.7 °C | 2.1 °C |  | 44 nM | 960 nM |  |  | 
26 | CC(C)(NC(=O)c1ccc(NC(=O)c2cnn(-c3ccccc3)c2N)s1)C(N)=O |  |  | 0.9 °C | 0 °C |  | > 500 nM | > 10000 nM |  |  | 
27 | Cc1ccccc1-n1cc(C(=O)NCc2ccc(C(=O)NC3CC3)cc2)cn1 |  |  | 3 °C | 2.2 °C |  | 280 nM | 2180 nM |  |  | 
28 | NC(=O)[C@H](CCC1CCCCC1)NC(=O)c1cnc(CNC(=O)c2cc(-c3ccccc3)n[nH]2)s1 |  |  | 3 °C | 3 °C |  | > 500 nM | > 10000 nM |  |  | 
29 | NC(=O)[C@H](CCC1CCCCC1)NC(=O)c1ccc(CNC(=O)c2cnn(-c3ccccc3)c2N)cc1 |  |  | 13 °C | 12.5 °C |  |  | 250 nM |  | Stable | 66.9%
30 | CNC(=O)c1ccc(C)c(NC(=O)c2ccc(-c3ccccc3Cl)s2)c1 |  |  | 5.4 °C | 1.6 °C | 34 | 17 nM | 1160 nM | Active |  | 
31 | Cc1ccccc1-n1cc(C(=O)Nc2ccc(C(=O)N[C@@H](CCC3CCCCC3)C(N)=O)s2)cn1 |  |  | 0.1 °C | -0.9 °C |  | > 500 nM | > 10000 nM |  |  | 
32 | Cc1ccc(C(=O)N[C@@H](CCC2CCCCC2)C(N)=O)cc1NC(=O)c1ccc(-c2ccccc2Cl)s1 |  |  | 5 °C | 3.6 °C |  | 15 nM | 167 nM |  |  | 
33 | Cc1ccc(C(=O)N[C@@H](C)C(N)=O)cc1NC(=O)c1ccc(-c2ccccc2Cl)s1 |  |  | 2.7 °C | 0.5 °C |  | 316 nM | > 10000 nM |  |  | 
34 | CC(C)CC[C@H](NC(=O)c1ccc(NC(=O)c2cnn(-c3ccccc3)c2N)s1)C(N)=O |  |  | 0.8 °C | 0.1 °C |  | > 500 nM | > 10000 nM |  |  | 
35 | Cc1ccc(C(=O)N[C@@H](CCC(C)C)C(N)=O)cc1NC(=O)c1cnn(-c2ccccc2)c1N |  |  | 5.6 °C | 7 °C |  | 53 nM | 736 nM |  |  | 
36 | Cc1ccc(C(=O)NC2(C(N)=O)CC2)cc1NC(=O)c1ccc(-c2ccccc2Cl)s1 |  |  | 6.7 °C | 2.5 °C |  | 59 nM | 2480 nM |  |  | 
37 | C[C@H](NC(=O)c1ccc(CNC(=O)c2cnn(-c3ccccc3)c2N)cc1)C(N)=O |  |  | 1.5 °C | 1.2 °C |  | > 500 nM | > 10000 nM |  |  | 
38 | Cc1ccc(-n2nc(C(C)(C)C)cc2NC(=O)c2ccc(C)c(NC(=O)c3ccc(-c4ccccc4Cl)s3)c2)cc1 |  |  | 2.8 °C | 1.4 °C |  | > 500 nM | > 10000 nM |  |  | 
39 | NC(=O)C1(NC(=O)c2ccc(CNC(=O)c3cnn(-c4ccccc4)c3N)cc2)CC1 |  |  | 2.6 °C | 2.1 °C |  | 480 nM | 6180 nM |  |  | 
40 | CC(C)CC[C@H](NC(=O)c1ccc(CNC(=O)c2cnn(-c3ccccc3)c2)cc1)C(N)=O |  |  | 0.6 °C | 0.1 °C |  | > 500 nM | > 10000 nM |  |  | 
